In US20210393549A1, “New use of R-enantiomer of adrenergic beta 2 receptor agonists for treatment of inflammatory bowel disease and its extra intestinal manifestations” (priority 2018, published 2021):
Where two headings read alike, the source gives them in different places.

What was measured:
[1] = tested on: DSS induced acute colitis; settings: for Hist score (histological score): epithelium 0-4 plus infiltration 0-4; for Hist score (histological score) / Col Length (colon length): tenth day; for Hist score (histological score) / FOB (fecal occult blood) / Weight / DAI (disease active index) / Col Length (colon length): 1 mg/kg (R-B, S-B 10 mg/kg; RS-C 2 mg/kg); for Hist score (histological score) / FOB (fecal occult blood) / Weight / Col Length (colon length): mean ± SD; for FOB (fecal occult blood): grade 0, 2, 4; for FOB (fecal occult blood) / Weight / Col Length (colon length): i.g. daily 8 days; for DAI (disease active index): score 0 to 12, i.g. daily 8 days from 2nd day of DSS, n=5; for colon histology (H&E), in words: Example 1, compared with untreated DSS mice
Excerpt: In one embodiment, IBD was induced in mice by add DSS into drink water for 7 days. […] (Cooper, S. et al., Clinic pathologic study of dextran sulfate sodium experimental murine colitis, Laboratory Investigation, vol. 69, no. 2, p. 238-249, 1993)
The mice were scarified at day 10th for anatomy and histology evaluations. […] Each of the above histological features was scored individually and added together which is then collectively expressed as “histological score”, for quantitative evaluation (Cooper, S. et al., above).
Male C57BL mice (8-10 weeks, 18-20 g) were grouped into control (drinking water only), DSS and DSS plus treatment groups (n=5). Acute colitis was induced by feeding mice with 2% (w/v) dextran sulfate sodium (DSS) (molecular mass 36-50 kDa) added to the drinking water given ad libitum for 7 days. At the end of seventh day, DSS was removed and animals received only drinking water for 2 days. The animals were euthanized for anatomical and histological examination at the tenth day after DSS ingestion.
R-salbutamol (R-S) (1 mg/kg, S-salbutamol (S-S) (1 mg/kg), R-terbutaline (R-T) (1 mg/kg), S-terbutaline (S-T) (1 mg/kg), R-bambuterol (10 mg/kg), S-bambuterol (S-B) (10 mg/kg), R-clenbuterol (R-C) (1 mg/kg), RS-clenbuterol (RS-C) (2 mg/kg) were administered i.g. daily, starting from the 2nd day of DSS induction for consecutive 8 days. Dexamethasone (Dex), 1 mg/kg) was used as a reference drug.
Evaluation of disease symptoms and histological changes Disease activity index (DAI): Animals were monitored daily for weight, water/food consumption, morbidity, stool consistency and fecal blood. […] The colon length was recorded as an indicator of inflammation. The entire colon was cut open longitudinally and gently flushed with sterile phosphate-buffered saline (PBS) to remove any traces of feces for pathology preparation. Colon segments were fixed in 10% neutral buffered formalin. Tissues were embedded in paraffin, sectioned, mounted on slides. H&E-stained paraffin section images were acquired. Pathological evaluation was conducted in a blinded manner.
Histological Score: the scores were given as follows: epithelium, 0=normal morphology, 1=loss of goblet cells, 2=loss of goblet cells in large areas, 3=loss of crypts, and 4=loss of crypts in large areas; and inflammation cells infiltration, 0=no infiltrate, 1=infiltrate around the crypt basis, 2=infiltrate reaching the muscularis mucosae, 3=extensive infiltration reaching the muscularis mucosae and thickening of the mucosa with abundant edema, and 4=infiltration of the submucosa. Data were presented as mean±the standard deviation (SD).

[2] = tested on: DSS induced sub-acute colitis; format: in vivo; set-up: DAI (disease active index) / FOB (fecal occult blood) / Hist score (histological score): scale not given here; Weight / Col Length (colon length): unit not given here; settings: for Col Length (colon length) / DAI (disease active index) / FOB (fecal occult blood) / Hist score (histological score) / Weight: one week treatment, evaluation at 23rd day, R-S, S-S 1 mg/kg, R-B, S-B 10 mg/kg; for length of colon-rectors, in words: sub-acute DSS colitis; for length of colon-rectors, in words / histological index / histological score, in words / fecal occult blood, in words / DAI, in words: compared with untreated DSS mice; for body weights, in words / histological index / histological score, in words / fecal occult blood, in words / DAI, in words: sub-acute or chronic DSS colitis; for fecal occult blood, in words: day 14th and 22nd
Excerpt: This invention also disclosed the used of R-salbutamol for treatment of sub acute or chronic phases of IBD. In one embodiment, IBD was induced by DSS as mentioned above, along with the treatment of R-salbutamol, at day 7th, DSS was removed and replaced with drinking water for additional 2 weeks. The disease active index (DAI) of mice was examined and evaluated periodically. The mice were scarified for pathological and histological evaluations at day of 23rd. In DSS induce IBD mice, there were significant loss of weight and fecal occult blood at day 14th and 22nd. The overall condition of colitis was severe although there was slightly improvement comparing the day 7th. The colon-rector length was significant shortened, and histological score were significant higher from control. In mice with DSS induced colitis, there were significant mononuclear leucocytes infiltration, few newly grew crypts with architectural disarray, denegation of epithelia, mucosa aberrant. There was also deep mucosal lymphocytosis, destruction of lamina propria and sometimes, transmural inflammation.
Same as example 1, except • 1), Three weeks' study with one week treatment.
DSS and all the treatment was removed and replaced with drinking water at the end of 1st week. Mice were given drink water and food ad libitum for additional 2 weeks.

[3] = tested on: DSS induced sub-acute colitis; assay: Prolonged (two weeks) treatment in DSS induced sub-acute colitis; format: in vivo, mice; settings: evaluation at 23rd day, salbutamol 1 mg/kg, bambuterol 10 mg/kg
Excerpt: Same as example 2, except. 1), Two Weeks Treatment within a Three Weeks of Study
DSS was removed from drinking water at the end of 1st week. The treatments were started at 1st day for consecutive 14 days (2 weeks). Only drinking water given for the 3rd week. The evaluation and examination were made at 23rd day as did in example 1.

[4] = tested on: knee joints (articular cartilage, meniscus); assay: Damage of knee joints in DSS induced IBD mice; format: in vivo; settings: compared with untreated DSS mice
Excerpt: In one embodiment, in DSS induced IBD mice, there was also a damage of knee joints. The articular cartilage structure became thinner and partially destroyed. The chondrocytes were degenerated, decreased and clustered. The meniscuses were damaged and lost its structural integrity. In X-ray, the layer of articular cartilage was thinner and bone structure was decreased. […] The articular cartilage and bone structure increased toward normal.

[5] = tested on: IMQ-induced Psoriasis-Like Skin lesions; assay: IMQ-induced psoriasis-like skin lesions; format: in vivo, mice; settings: dorsal skin, IMQ-induced psoriasis mice
Protocol: Mice were divided into control, psoriasis and psoriasis plus treatment groups, (n=8 in each group). Psoriasis were induced by topical application of imiquimod cream (62.5 mg) on shaved dorsal skin for seven consecutive days. Vaseline was used in control group. There were four treatment groups: three doses of R-salbutamol (R-Sal) (0.5 mg, 1 mg, 2 mg/kg) and Dexamethasone (1 mg/kg) as positive control. All the treatments and same volume of saline (in control group) were administered orally. In some experiment, R-bambuterol (long-last beta2 agonist) was used as an additional treatment group (n=3). Psoriasis Area Severity Index were used for evaluation. Each of the scores for erythema, scaling and skin thickness were measured separately and then group together as a calculative score. (FIG. 2)

[6] = tested on: DNCB induced allergic contact dermatitis; assay: DNCB induced allergic contact dermatitis model (eczema); format: in vivo, mice; settings: oral 8 days, indomethacin 5 mg/kg
Protocol: Mice was shaved at abdominal area DNCB (100 μL 0.5%) is dissolved and applied to the shaved skin to induce Atopica dermatitis for 2 consecutive days. At day 8th, DNCB was applied to both inner and outer surfaces of ears to induce eczema. Treatment of R-salbutamol and indomethacin were given orally at day 1st for consecutive 8 days. The mice were scarified at day 9th for examination and evaluation. Mice were divided into four groups (n=8), namely A, Control; B. Eczema (DNCB); C. Eczema plus R-Salbutamol of 0.05, 0.1 or 0.2 mg/kg; D. Eczema plus indomethacin of 5 mg/kg. The inflammation scores were evaluated according to swelling, erythema, scratch and thickness of both ears. [table]

TNBS-induced colitis = TNBS-induced colitis (model for Crohn's disease); format: in vivo, Male mice; settings: TNBS treated mice
Excerpt: Male mice colitis was induced by rectal co-administration of ethanol and TNBS (Trinitrobenzenesulfonic acid). Severe colitis in mice that was characterized by weight loss and diarrhea. Histologically there were loss of normal structures, visible discrete epithelioid granuloma, multiple erosive lesions, massive transmural inflammation infiltration of lymphocytes, and the loss of goblet cells. […] There was significant alleviation of lesions, few inflammatory infiltration with growing crypts and recovery mucosa epithelia along the column. […] In addition, in TNBS treated colitis mice, there were perianal symptoms: erythema, abscesses and ulcers found in some mice, which may lead to perianal fissures or fistulas. […] The therapeutically effects of R-salbuterol, R-clenbuterol and R-bambuterol on the symptoms in TNBS induced Crohn's disease has never been reported in prior art.

[7] = acute DSS colitis, compared with untreated DSS mice
[8] = R-Salbutamol 0.05, 0.1 or 0.2 mg/kg

## C[C@@H]1C[C@H]2[C@@H]3CCC4=CC(=O)C=C[C@]4(C)[C@@]3(F)[C@@H](O)C[C@]2(C)[C@@]1(O)C(=O)CO [DEX, Dexamethasone]
[1]
  Hist score (histological score): 6 ± 0.5
  FOB (fecal occult blood): 2.5 ± 0.5
  Weight: 88 ± 2.4
  DAI (disease active index): 7
  Col Length (colon length): 7.1 ± 0.2

## CC(C)(C)NCC(O)c1cc(Cl)c(N)c(Cl)c1 (centres unmarked) [RS-C, RS-clenbuterol]
[1]; [7]
  DAI, in words: much less improvement than DSS mice treated with R-clenbuterol
  histological score, in words: better than DSS untreated but worse than R-enantiomer treated mice
[1]
  Hist score (histological score): 6 ± 0.5
  FOB (fecal occult blood): 4 ± 0.1
  Weight: 87 ± 2
  DAI (disease active index): 10
  Col Length (colon length): 6.5 ± 0.2^

## CN(C)C(=O)Oc1cc(OC(=O)N(C)C)cc([C@H](O)CNC(C)(C)C)c1 [S-B, S-bambuterol]
[2]
  Col Length (colon length): 6.8 ± 0.1
  DAI (disease active index): 12
  FOB (fecal occult blood): 3.9 ± 0.1
  Hist score (histological score): 6.9 ± 1^
  Weight: 96 ± 1.1
  length of colon-rectors, in words: shorter
  body weights, in words: lower
  histological index / histological score, in words: markedly higher than untreated DSS mice
  fecal occult blood, in words: more severe
[3]
  DAI, in words: markedly higher than untreated DSS group
  histological score, in words: markedly higher than untreated DSS group
[4]
  damage of articular cartilage, meniscus and bone structure of knee joints: exacerbated
[1]
  colon histology (H&E), in words: no signs of improvements
  Hist score (histological score): 7.5 ± 1^
  FOB (fecal occult blood): 2.5 ± 0.5
  Weight: 81 ± 3.2
  DAI (disease active index): 12
  Col Length (colon length): 6 ± 0.6

## CC(C)(C)NC[C@@H](O)c1ccc(O)c(CO)c1 [S-S, S-salbutamol]
[2]
  Col Length (colon length): 6.5 ± 0.9
  DAI (disease active index): 13
  FOB (fecal occult blood): 4.5 ± 0.3
  Hist score (histological score): 7.7 ± 0.5
  Weight: 95 ± 0.8
  length of colon-rectors, in words: shorter
  body weights, in words: lower
  DAI, in words: much worse
  histological index / histological score, in words: markedly higher than untreated DSS mice
  fecal occult blood, in words: more severe
[3]
  DAI, in words: markedly higher than untreated DSS group
  histological score, in words: markedly higher than untreated DSS group
[5]
  histology of psoriasis skin lesions (HE): worsened the psoriasis histology
[4]
  damage of articular cartilage, meniscus and bone structure of knee joints: exacerbated
[1]
  colon histology (H&E), in words: no signs of improvements
  Hist score (histological score): 7.9 ± 0.5
  FOB (fecal occult blood): 4.5 ± 0.5
  Weight: 80 ± 2.3
  DAI (disease active index): 13
  Col Length (colon length): 6.0 ± 0.9
[1]; S-enantiomers in DSS mice
  toxic effects on the bowel: toxic to the bowel
[1]; acute DSS colitis
  effects in prevent and treatment of DSS induced IBD, in words: no amelioration or therapeutic effects at all
[1]; [7]
  DAI, in words: significantly exacerbated
  FOB, in words: significantly worsened
  histological score, in words: significantly higher than untreated DSS mice
  length of colon-rector / shortening of large bowel, in words: further shortened

## CC(C)(C)NC[C@@H](O)c1cc(O)cc(O)c1 [S-T, S-terbutaline]
[2]
  DAI, in words: much worse than untreated DSS mice
  histological index / histological score, in words: much worse than untreated DSS mice
[1]
  colon histology (H&E), in words: no signs of improvements
  Hist score (histological score): 7 ± 1
  FOB (fecal occult blood): 4 ± 0.5
  Weight: 80 ± 2.9
  DAI (disease active index): 12
  Col Length (colon length): 5.9 ± 0.5

## CC(C)(C)NC[C@@H](O)c1cc(Cl)c(N)c(Cl)c1 [S-clenbuterol]
[2]
  DAI, in words: much worse than untreated DSS mice
  histological index / histological score, in words: much worse than untreated DSS mice

## COc1ccc2c(c1)c(CC(=O)O)c(C)n2C(=O)c1ccc(Cl)cc1 [indomethacin, reference compound]
[6]; [8]
  erythema score of both ears: lesser effects
  thickness score of both ears: lesser effects
[6]; dose-dependent response
  eczema histology and inflammatory infiltration: little effects on eczema

## infliximab
TNBS-induced colitis
  submucosa fibrosis and narrowing of intestinal lumen: enhanced the submucosa fibrosis and lumen narrowing
TNBS-induced colitis; listed as IFX
  submucosa fibrosis and narrowing of intestinal lumen: significant submucosa fibrosis and narrowing in lumen
